Like-named read-outs stand apart in the source and are kept apart here.
Tests used:
[1] = system: human platelets; experiment: Platelet aggregation of human citrated platelet-rich plasma induced by arachidonic acid (turbidimetric); format: cell-based; conditions: for inhibition at 100 µM: healthy human platelets, read-out: Inhibition of AA-induced platelet aggregation; for Antiplatelet activity (in words): AA-induced platelet aggregation
Description: The human blood samples were obtained from adult volunteers, who abstained from the use of drugs or other substances that could interfere with the experiment for at least 15 days prior. […] The platelet rich (PRP) and poor (PPP) plasma were prepared by differential centrifugation and platelet aggregation was monitored using the turbidimetric method described by Born and Cross with an aggregometer 4-Pack® (Helena Laboratories, Beaumount, TX, USA). Different concentrations of the synthetic derivatives and the vehicle (DMSO 1%) were pre-incubated for 2 min before addition of the agonists (500 μM arachidonic acid and 5 μg/mL collagen). The platelet aggregation tests were performed in triplicate and the data were statistically analyzed.

[2] = system: Salmonella typhimurium; experiment: Reverse mutagenesis to histidine prototrophy (Ames test), spot test; conditions: without metabolic activation; 10 µM, 100 µM and 500 µM
Description: This assay was performed as described by Maron and Ames, using the histidine Salmonella typhimurium auxotroph mutant strains TA97, TA98, TA100 and the […] TA102 (Table 5).

[3] = system: PGE2 production; experiment: Measurement of plasma PGE2 levels by EIA in platelet-rich plasma; format: cell-based; conditions: human platelet-rich plasma
Description: The stable direct metabolite of PGE2, 13,14-dihydro-15-keto-Prostaglandin E2, is a known marker of the COX-1 activity. By the measurement of total levels of this PGE2 metabolite in human platelet-rich plasma, we evaluated the feasibility of antiplatelet N,N'-disubstituted thioureas to inhibit COX-1 activity in healthy platelets (Table 2).
Plasma samples containing 100 μM of each thiourea with antiplatelet activity were used to determine the concentrations of […], an index of in vitro COX-1 activity. Briefly, ozagrel (3 μL, 100 μM) were added to stop TXS activity and the aggregation were triggered with 10 μL of arachidonic acid (500 μM) in PRP samples containing each active derivative (100 μM) under stir conditions. After five minutes the suspensions were mixed with indomethacin (3 μL, 10 mM) stop-solution. By sonication for 1 min, platelets were disrupted and purification step were performed according to the manufacturer’s instructions (Cayman Chemical Co.). Plasma levels of PGE2 were measured in duplicate by competitive immunoassay using commercially available kits for EIA (PGE2 EIA Kit, Cayman Chemical Co.) according to the manufacturer’s instructions. A threshold of 25.75 ng/mL was defined as control plasma levels of PGE2 after platelet disrupture.

[4] = system: TXB2 production; experiment: Measurement of plasma TXB2 levels by EIA in platelet-rich plasma; format: cell-based; conditions: for inhibition at 100 µM: Homo sapiens, Platelet; for Platelet Inhibition of TXB2 (%): 100 µM, human platelet-rich plasma
Description: Thromboxane B2 (TXB2), a stable TXA2 metabolite, is widely used as a prognostic risk marker of platelet activation in cardiovascular disease, which is closely related to COX-1 and Thromboxane Synthetase activity. Thus, the plasma levels of this metabolite were measured using an enzyme immunoassay (EIA) as described in the Experimental Section.
Plasma samples containing 100 μM of each thiourea with antiplatelet activity were used to determine the concentrations of thromboxane B2, an index of in vitro COX-1 activity. Briefly, 10 μL of arachidonic acid (500 μM) were added to platelet-rich plasma samples containing each active derivative (100 μM) under stir conditions. After five minutes the suspensions were mixed with 3 μL Indomethacin (10 mM) stop-solution. By sonication for 15 min, platelets were disrupted, and the resulting homogenates were centrifuged at 2000 g for 10 min to allow complete release of TXB2. Plasma levels of TXB2 were measured in duplicate by competitive immunoassay using commercially available kits from EIA Cayman (TXB2 EIA Kit, Cayman Chemical Co, Ann Arbor, MI, USA) according to the manufacturer’s instructions. A threshold of 25.75 ng/mL was defined as control plasma levels of TXB2 after platelet disrupture.

[5] = system: COX-1; design: method as in PMID 22263894; conditions: read-out: IC50 of non-anionic COX-1 inhibitors; cited from earlier work
[6] = system: erythrocytes; experiment: Hemolysis assay (erythrocyte lysis); format: cell-based, human; conditions: 3 h incubation; derivatives and ASA at 100 μM, TRITON at 1%
Description: Healthy erythrocytes were washed three times with PBS (pH 7.4) by centrifugation and suspended in the same buffer. All derivatives were incubated with the erythrocyte suspension for 3 h at 37 °C. The release of hemoglobin was determined by monitoring the optical density of the supernatant at 540 nm. The experiments were performed in triplicate and complete hemolysis (positive control) was determined using 1% Triton X-100. Hemolysis less than 10% indicated good hemocompatibility and non-toxicity of the molecules tested.

[7] = Homo sapiens, Platelet, read-out: IC50, concentration that caused 50% inhibition of platelet aggregation, arachidonic acid-induced (500 μM), human platelet-rich plasma
[8] = read-out: IC50, concentration that caused 50% inhibition of platelet aggregation, arachidonic acid-induced (500 μM), human platelet-rich plasma

| Molecule | IC50 [1, 7] [µM] | Ames Test S. typhimurium TA97 [2] | Ames Test S. typhimurium TA98 [2] | Ames Test S. typhimurium TA100 [2] | Ames Test S. typhimurium TA102 [2] | melting point [°C] | inhibition at 100 µM ([1]; Platelet) [%] | inhibition at 100 µM [3] [%] | inhibition at 100 µM [4] [%] | Antiplatelet activity (in words) [1] | IC50 [1, 8] [µM] | Platelet Inhibition of TXB2 (%) [4] [%] | IC50 [5] [nM] | Hemolysis [6] [%] |
| --- | --- | --- | --- | --- | --- | --- | --- | --- | --- | --- | --- | --- | --- | --- |
| CNC(=S)Nc1ccccc1 [3a, N-Methyl-N'-phenylthiourea] | 308 ± 10.4 | - | - | - | - |  |  |  |  |  |  |  |  |  |
| S=C(Nc1ccccc1)NC1CCCCC1 [3b, N-Cyclohexyl-N'-phenylthiourea] | 153 ± 4.5 | - | - | - | - | 149 to 151 |  |  |  |  |  |  |  |  |
| OCCNC(=S)Nc1ccccc1 [3c, N-(2-Hydroxyethyl)-N'-phenylthiourea] | 170 ± 17.3 | - | - | - | - | 139 to 141 |  |  |  |  |  |  |  |  |
| CCN(CC)C(=S)Nc1ccccc1 [3d, N-N-Diethyl-N'-phenylthiourea] | 29.1 | - | - | - | - |  | 96 to 98 | 25.6 ± 5.9 | 74.2 ± 10.2 |  |  |  |  |  |
| COc1cc(NC(=S)Nc2ccccc2)cc(OC)c1OC [3e, N-Phenyl-N'-(3,4,5-trimethoxyphenyl)thiourea] | 251 ± 3.5 | - | - | - | - | 164 to 166 |  |  |  | lack antiplatelet activity |  |  |  |  |
| S=C(Nc1ccccc1)Nc1ccc2c(c1)OCO2 [3f, N-3,4-Methylenedioxyphenyl-N'-phenylthiourea] | 322 ± 8.9 | - | - | - | - | 140 to 142 |  |  |  | lack antiplatelet activity |  |  |  |  |
| S=C(Nc1ccccc1)Nc1cccc2ccccc12 [3g, N-α-Naphthyl-N'-phenylthiourea] |  | - | - | - | - |  |  |  |  |  | 142 ± 9 |  |  |  |
| CC(C)NC(=S)NCc1ccccc1 [3h, N-Benzyl-N'-isopropylthiourea] | 214 ± 10.2 | - | - | - | - | 121 to 123 |  |  |  |  |  |  |  |  |
| CCN(CC)C(=S)NCc1ccccc1 [3i, N-Benzyl-N',N'-diethylthiourea] |  | - | - | - | - |  | 96 to 98 | 21.1 ± 5 | 74.7 ± 5.5 |  | 86.2 |  |  |  |
| S=C(NCc1ccccc1)Nc1ccc2c(c1)OCO2 [3j, N-Benzyl-N'-(3,4-methylenedioxyphenyl)thiourea] | 155 ± 3.6 | - | - | - | - | 114 to 116 |  |  |  |  |  |  |  |  |
| CC(C)NC(=S)NCCc1ccccc1 [3k, N-Isopropyl-N'-(2-phenethyl)thiourea] | 188 ± 10.7 | - | - | - | - | 126 to 128 |  |  |  |  |  |  |  |  |
| CCCCNC(=S)NCCc1ccccc1 [3l, N-Butyl-N'-(2-phenethyl)thiourea] | 153 ± 15 | - | - | - | - | 61 to 63 |  |  |  |  |  |  |  |  |
| CCN(CC)C(S)=NCCc1ccccc1 [3m, N,N-diethyl-N'-(2-phenethyl)thiourea] | 34.5 | - | - | - | - | 72 to 74 | 96 to 98 | 28.2 ± 5.9 | 91 |  | 34.5 ± 0.9 | 91.2 ± 0.0 |  |  |
| S=C(NCCc1ccccc1)NC1CCCCC1 [3n, N-Cyclohexyl-N'-(2-phenethyl)thiourea] | 277 ± 42.9 | - | - | - | - | 109 to 111 |  |  |  |  |  |  |  |  |
| S=C(NCCc1ccccc1)Nc1cccc2ccccc12 [3o, N-(α-Naphthyl)-N'-(2-phenethyl)thiourea] | 157 ± 19.9 | - | - | - | - | 155 to 157 |  |  |  |  |  |  |  |  |
| S=C(NCCc1ccccc1)Nc1ccc2c(c1)OCO2 [3p, N-(3,4-Methylenedioxyphenyl)-N'-(2-phenethyl)thiourea] | 84.6 | - | - | - | - | 126 to 128 | 96 to 98 | 7.9 ± 7.9 | 88 |  | 84.5 | 88.1 ± 5.5 |  |  |
| COc1cc(NC(=S)Nc2ccc3c(c2)OCO3)cc(OC)c1OC [3q, N-(3,4-Methylenedioxyphenyl)-N'-(3,4,5-trimethoxyphenyl)thiourea] | 290 ± 21.9 | - | - | - | - | 142 to 144 |  |  |  | lack antiplatelet activity |  |  |  |  |
| COc1ccc2c(c1)c(CC(=O)O)c(C)n2C(=O)c1ccc(Cl)cc1 [Indomethacin, reference compound] |  |  |  |  |  |  |  | 28 ± 1.6 | 99.8 |  |  |  |  |  |
| O=C(O)/C=C/c1ccc(Cn2ccnc2)cc1 [Ozagrel, reference compound] |  |  |  |  |  |  |  |  | 98 ± 2.8 |  |  |  |  |  |
| Nc1ccc(NC(=O)c2ccc(C(F)(F)F)cc2)nc1 [TFAP] |  |  |  |  |  |  |  |  |  |  |  |  | 800 |  |
| Triton X-100 |  |  |  |  |  |  |  |  |  |  |  |  |  | 100 |
